According to patent US10745370B2, “Farnesyl transferase inhibitors and uses thereof” (MACKAY MEMORIAL HOSPITAL, priority 2016, dated 2020):
Several values for one entry are separate records, joined by “and”; a condition that tells them apart may be missing. Identical values can stand only once.

Tests used:
M1 macrophages = test: Differentiation analysis, cell viability of M1 macrophages; assay type: cell-based, human; details: for Cell viability of M1 macrophages: LPS-induced M1 differentiation, 6 days, control 100%; for change in M1 population of macrophages compared with control: Table 4
Procedure: (§1) M1 differentiation of freshly isolated CD14^+ cells was induced by the addition of lipopolysaccharide (LPS), while M2 differentiation of freshly isolated CD14^+ cells was induced by the addition of IL-4. Then, the present compounds (e.g., Mib-5, 6, 7, 8, 9, or 10) were added at the indicated dosages. 6 days later, the population of the differentiated macrophages were then determined by cell viability analysis. The cell viability was measured by cell counting kit-8 (CCK-8, Sigma). The half maximal inhibitory concentrations (IC50) of the test compounds on macrophages or dendritic cells were calculated.

rat PFTase = target: T1, rat PFTase (Rattus norvegicus, UniProt Q02293+Q04631); test: Inhibition of farnesyl transferase (fluorescence assay); assay type: biochemical; details: mean ± SD of three independent experiments
T1 construct: purchased Jena Biosciences
Procedure: The assay was carried out in 384-well microplates with a final volume of 20 μl by the method modified from the previous report (Long et al., 2009). Briefly, 10 nM of rat PFTase (Jena Biosciences, Jena, Germany) was incubated with the tested compound or DMSO (1%) for 15 min, and then the mixture was added in a solution (50 mM Tris-HCl, pH 7.5, 5 mM MgCl2, 5 mM DTT, 0.1 mM ZnCl2, 0.2% octyl-β-D-glucopyranoside (Sigma, St. Louis, Mo.), 10 μM PFTase substrate dansyl-Gly-Cys-Val-Leu-Ser-OH, and 10 μM farnesyl pyrophosphate (Sigma, St. Louis, Mo.)) to initiate the reaction. The reaction was incubated at 37° C. for 30 min, and the fluorescence was detected by a M5 plate reader (Molecular Devices, CA, USA) at 340 nm excitation and 505 nm emission.

M2 macrophages = test: Differentiation analysis, cell viability of M2 macrophages; assay type: cell-based, human; details: for Cell viability of M2 macrophages: IL-4-induced M2 differentiation, 6 days, control 100%
Procedure: as §1

macrophages = test: Phagocytosis assay with fluorescent latex beads; assay type: cell-based, human; details: M1 and/or M2 populations, FIG. 6
Procedure: As to the effects of the present compound on macrophages, the CD14^+ cells were cultivated and treated as indicated above except the addition of cytokine cocktail on day 6. The macrophages were collected on day 6 and subjected to further assays, including viability assay, trypan blue exclusion test, morphology observation, cell marker staining, and phagocytotic activity analysis.
The phagocytic activity of macrophages was measured by using flow cytometric analysis. The green fluorescent latex beads (carboxylate-modified beads with diameter 2 μm) were suspended in PBS solution and added into macrophage culture for 2 hours with vortexa at 37° C. The macrophages were subjected to flow cytometry for measurement of fluorescent intensity

dendritic cells [1] = test: Cell marker expression on dendritic cells, flow cytometry; assay type: cell-based, human; details: 10 μM; for expression of CD1a, differentiation marker of dendritic cells: FIG. 9; for expression of CD83, maturation marker of dendritic cells: FIG. 10
Procedure: (§2) Mononuclear cells (MNCs) were separated from the peripheral blood of healthy donors obtained with written consent by use of Ficoll-Hypaque density centrifugation, followed by positive selection with magnetic anti-CD14 microbeads.
(§3) The isolated CD14^+ cells were cultivated in Minimum Essential Medium (MEM medium) supplemented with 10% fetal bovine serum (FBS), 100 ng/ml granulocyte-macrophage colony-stimulating factor (GM-CSF, Gentaur), and 50 ng/ml interleukin-4 (IL-4, R&D), and kept in an environment of 37° C. with 5% CO2/95% air.
(§4) To evaluate the effects of the present compound on dendritic cells, the CD14^+ cells were respectively treated with 10 μM of test compound (i.e., Mib-5, Mib-6, Mib-7, Mib-8, Mib-9, and Mib-10) on day 1. Then, on day 3, the cultured medium in each well was replenished by adding half the volume of the cultured medium containing the same treatment as indicated above. Then, on day 6, a cytokine cocktail containing IL-1, IL-6, and tumor necrosis factor-α (TNF-α) was added to induce maturation. On day 7, the differentiated dendritic cells were collected and subjected to further assays, including viability assay, morphology observation, and cell marker staining.
The expression of various types of cell markers, such as CD14, CD206, and CD80 expressed on the surface of macrophages, and CD1a, CD14, CD83, and HLA-DR expressed on the dendritic cells, were respectively detected by fluorescein isothiocyanate (FITC) and phycoerythrin (PE)-conjugated monoclonal antibodies in FACS caliber flowcytometer. Monoclonal antibodies used in this examples included anti-CD14 (IgG-FITC), anti-CD206 (IgG-FITC), anti-CD80-PE, anti-CD1a-PE, anti-CD83-PE and anti-human leukocyte antigen (HLA)-DR-PE. Results were analyzed by CellQuest software.
(§5) In this example, the effects of the present compounds on dendritic cells were investigated. Briefly, the dendritic cells were respectively treated with 10 μM of Mib-5, Mib-6, Mib-7, Mib-8, or Mib-10. Seven days later, the cells were harvested and subjected to analysis of morphology observation, cell viability, and/or cell marker expression.

dendritic cells [2] = test: Trypan blue exclusion analysis of dendritic cells; assay type: cell-based, human; details: 10 μM, seven days, FIG. 7
Procedure: as §2, §3, §4
The dye exclusion test is used to determine the number of viable cells present in a cell suspension. […] In this test, the cells were first treated with a test compound (i.e., Mib-5, 6, 7, 8, 9 or 10) for a certain period of time (e.g., 72 hours), then the cells were harvested and re-suspended in suitable buffer solution. The cell suspension was then mixed with trypan blue dye and then visually examined to determine whether cells had taken up or excluded the dye. A viable cell will have a clear cytoplasm, whereas a nonviable cell will have a blue cytoplasm. The concentration required to reduce viability by 50% (IC50) after 72 hours was extrapolated from the dose-response curves by different concentrations of the test compound using a second-order polynomial regression model and analyzing with SigmaPlot Software (Systat Software Inc., San Jose, Calif.).
as §5

| Compound | Cell viability of M1 macrophages (M1 macrophages) | change in M1 population of macrophages compared with control (M1 macrophages) | IC50 (rat PFTase) | Cell viability of M2 macrophages (M2 macrophages) | change in M2 population of macrophages compared with control (M2 macrophages; Table 4) | phagocytic activity compared with control (macrophages) | expression of CD1a, differentiation marker of dendritic cells (dendritic cells [1]) | expression of CD83, maturation marker of dendritic cells (dendritic cells [1]) | levels of viable dendritic cells (dendritic cells [2]) | increase of M2 population (M2 macrophages; compared with control, Table 4) |
| --- | --- | --- | --- | --- | --- | --- | --- | --- | --- | --- |
| COC1=CC(=O)[C@@]2(c3cc(=O)c4ccc(OC)cc4o3)[C@H](C[C@]3(C)[C@@H](C(=O)O)CC=C4[C@H]3CCCC4(C)C)C(C)=CC[C@H]2C1=O [Mib-5] | 63.5% | significant reduction | < 10 µM and 7.51 µM | 86.4% | slight decrease | reduced | inhibited | inhibited | reduced |  |
| COC1=CC(=O)[C@@]2(c3cc(=O)c4c(O)cc(O)cc4o3)[C@H](C[C@]3(C)[C@@H](C(=O)O)CC=C4[C@H]3CCCC4(C)C)C(C)=CC[C@H]2C1=O [Mib-7] | 82.5% | decrease | < 10 µM and 8.46 µM | 136.4% |  | reduced | inhibited | inhibited | reduced | about 40% |
